These molecules were tested against T1, Polyphenol oxidase 1 (White button mushroom, UniProt Q00024) (assay: In Vitro Tyrosinase Inhibition Assay). Settings: pH 6.8; 25 °C.
T1 sequence (Q00024 whole entry): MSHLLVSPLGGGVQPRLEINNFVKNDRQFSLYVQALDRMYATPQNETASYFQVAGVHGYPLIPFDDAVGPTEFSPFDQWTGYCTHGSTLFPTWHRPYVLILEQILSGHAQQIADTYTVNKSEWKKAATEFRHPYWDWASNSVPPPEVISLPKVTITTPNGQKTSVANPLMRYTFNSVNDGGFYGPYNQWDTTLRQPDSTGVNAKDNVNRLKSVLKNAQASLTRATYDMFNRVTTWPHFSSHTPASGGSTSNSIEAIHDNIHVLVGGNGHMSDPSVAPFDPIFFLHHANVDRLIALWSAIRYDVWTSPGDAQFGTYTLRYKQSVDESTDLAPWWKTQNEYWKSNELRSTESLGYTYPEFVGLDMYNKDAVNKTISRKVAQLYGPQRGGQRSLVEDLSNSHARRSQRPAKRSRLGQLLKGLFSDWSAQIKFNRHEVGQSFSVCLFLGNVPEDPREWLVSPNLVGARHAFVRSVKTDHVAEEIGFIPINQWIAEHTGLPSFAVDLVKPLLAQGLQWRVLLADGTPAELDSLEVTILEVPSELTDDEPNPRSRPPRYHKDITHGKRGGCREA
Method: Tyrosinase inhibition assays were performed in a 96-well microplate format using the SpectraMax 340 microplate reader (Molecular Devices, CA) according to the method developed by Hearing [Khan et al., Pure Appl. […] First the samples were screened for the o-diphenolase inhibitory activity of mushroom tyrosinase (Lyophilised, ≥2000 units/mg, Sigma, […], USA) using L-3,4-dihydroxyphenylalanine (L-DOPA) (Sigma) as substrate. All the active samples from the preliminary screening were subjected to half maximal inhibitory concentration (IC50) studies. The samples were dissolved in methanol/DMSO to a final concentration of 0.5%. […] Then the L-DOPA (0.5 mM) was added to the reaction mixture and the reaction was monitored by measuring the change in absorbance at 475 nm (at 37°C) due to the formation of the DOPA chrome for 10 min.

Compound | IC50 [µM]
O=C(NCCO)c1cc([N+](=O)[O-])cc([N+](=O)[O-])c1 [N-(2-Hydroxy-ethyl)-3,5-dinitro-benzamide (7)] | 1.09
CC(C)=CCOC(=O)c1ccccc1 [3-Methyl-2-butenylbenzoate (1)] | 83.4
O=C(Oc1ccc([N+](=O)[O-])cc1)c1ccc([N+](=O)[O-])cc1C(F)(F)F [4-Nitro-phenyl-(4-nitro-2-trifluoromethyl)-benzoate (6)] | 29.7
N[C@@H](Cn1ccc(=O)c(O)c1)C(=O)O | 3.68

More lines, now with the values ahead:

IC50 [µM] | Compound
11.8 | CCNC(=O)c1ccccc1 [N-Ethyl-benzamide (10)]
3.08 | O=C(NCCBr)c1cc([N+](=O)[O-])cc([N+](=O)[O-])c1 [N-(2-Bromo-ethyl)-3,5-dinitro-benzamide (8)]
2.09 | Cc1ccc(C(=O)N(C)O)cc1 [N-Hydroxy-4,N-dimethyl-benzamide (9)]
14.8 | CC(C)=CCOC(=O)c1ccc(O)cc1 [3-Methyl-2-butenyl-4-hydroxybenzoate (2)]

From BindingDB's records for doi:10.3109/14756366.2010.482529 (Yonsei University, 2010)
